# Measurements as given in patent US20230012936A1, “COMBINATION THERAPY USING GLUCAGON AND GLP-1 CO-AGONISTS FOR THE TREATMENT OF OBESITY” (MEDIMMUNE, LLC, priority 2019, published 2023).
# Legend:
# [1] = clinical; conditions: for Cmax: Dapagliflozin mean Cmax
# Protocol: The Cmax and the corresponding tmax were identified from the observed data. Log-linear regression of the terminal phase yielded the terminal rate constant (λz). The area under the plasma concentration time-curve during the dosing interval (AUCτ) was calculated by the log-linear trapezoidal rule. The area under the curve to infinity (AUC0-inf) was calculated as the sum of AUC(o-t) and Ct/z, where Ct is the observed plasma concentration obtained from the log-linear regression analysis of the last quantifiable time point and z is the terminal phase rate constant. Clearance (CL/F) was determined by dose/AUC0-inf, and the terminal half-life (t1/2) was calculated as 0.693/λz.
# [2] = Safety: adverse events, laboratory values, vital signs, ECG; type: in vivo, human; conditions: as judged by the investigator
# Protocol: Blood samples were collected to evaluate anti-drug antibody (ADA) response to cotadutide. Serum samples were evaluated for ADA using a validated immunoassay. Adverse events (AEs) and serious adverse events (SAEs) were collected from the time of informed consent throughout the treatment period and including the follow-up period. AEs and SAEs were graded by severity and relationship to investigational product and SAEs were assessed for relationship to protocol procedures.
# [3] = 10 mg/day PO, cited from earlier work
smiles,measurement,setting,value
CCOc1ccc(Cc2cc([C@@H]3O[C@H](CO)[C@@H](O)[C@H](O)[C@H]3O)ccc2Cl)cc1 [dapagliflozin],Impact of cotadutide on dapagliflozin oral absorption,[1]; dapagliflozin 10 mg/day PO,marginal impact
same,half-life,"[1]; human, plasma, oral, 10 mg/day",~8 h
same,Cmax,"[1]; human, plasma, oral, cotadutide group, Day −1 (cotadutide not yet co-administered)",117 ng/mL
same,Cmax,"[1]; human, plasma, oral, group receiving dapagliflozin and placebo, Day 7",92 ng/mL
same,Cmax,"[1]; human, plasma, oral, group receiving dapagliflozin and placebo, Day 14",95.6 ng/mL
same,Cmax,"[1]; human, plasma, oral, group receiving dapagliflozin and placebo, Day 28",112 ng/mL
same,Cmax,"[1]; human, plasma, oral, group receiving dapagliflozin and placebo, Day −1",110 ng/mL
same,Cmax,"[1]; human, plasma, oral, in the presence of cotadutide, Day 7",84.4 ng/mL
same,Cmax,"[1]; human, plasma, oral, in the presence of cotadutide, Day 14",61.1 ng/mL
same,Cmax,"[1]; human, plasma, oral, in the presence of cotadutide, Day 28",94.2 ng/mL
same,"Incidence of dapagliflozin-related TEAEs, cotadutide group",[2],4.0%
same,"Incidence of dapagliflozin-related TEAEs, placebo group",[2],8.3%
same,Dapagliflozin Cmax (literature),[3]; Dapagliflozin NDA 202293,120 ng/mL
same,Dapagliflozin tmax (literature),[3]; Dapagliflozin NDA 202293,1 h
same,Dapagliflozin half-life (literature),[3]; literature data,15 h
